According to PubChem BioAssay AID588774 (The Scripps Research Institute Molecular Screening Center, 2011):
Calls of active or inactive are those of the source.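 Rule for the calls: active = target enzyme inhibited at least 50% at a set dose, and selective over every off-target enzyme by a set factor; inactive = weaker inhibition or too little selectivity.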

Experiments:
[1] = target: Platelet-activating factor acetylhydrolase (Mus musculus) (UniProt Q60963); experiment: competitive ABPP of pPAFAH versus proteome hydrolases – biochemical, gel-based, FP-Rh fluorescence, complex proteome, SAR compounds, selectivity assay for pPAFAH inhibitor project, SAR follow-up (AID 588774); settings: pPAFAH, stronger effect = higher value;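 for inhibition: 0% = DMSO-only band intensity and 100% = blank gel background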
[2] = as above; settings: at 10 µM
pPAFAH = experiment: as above; settings: anti-targets inhibited, at 10 µM
[3] = target: Monoglyceride lipase (Mus musculus) (UniProt O35678); experiment: as above; settings: MAGL, stronger effect = higher value
ABHD3 = experiment: as above; settings: stronger effect = higher value
FAAH = experiment: as above; settings: stronger effect = higher value
LYPLA2 = experiment: as above; settings: stronger effect = higher value
MW 30 kDa = experiment: as above; settings: stronger effect = higher value
LYPLA1 = experiment: as above; settings: stronger effect = higher value
ABHD6 = experiment: as above; settings: stronger effect = higher value
MW 32 kDa = experiment: as above; settings: at 1 µM, stronger effect = higher value
ABHD4 = ABHD4 (UniProt Q8VD66); experiment: as above; settings: stronger effect = higher value
Chain of ABHD4 (Q8VD66 whole entry, looked up): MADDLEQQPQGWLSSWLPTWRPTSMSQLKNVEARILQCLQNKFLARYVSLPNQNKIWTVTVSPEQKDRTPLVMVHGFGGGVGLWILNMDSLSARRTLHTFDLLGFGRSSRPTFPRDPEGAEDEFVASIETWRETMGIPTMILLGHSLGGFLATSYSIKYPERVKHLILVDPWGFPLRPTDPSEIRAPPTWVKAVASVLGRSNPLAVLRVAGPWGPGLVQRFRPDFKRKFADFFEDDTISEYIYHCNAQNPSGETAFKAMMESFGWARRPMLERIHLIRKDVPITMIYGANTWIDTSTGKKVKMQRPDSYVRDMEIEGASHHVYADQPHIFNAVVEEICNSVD

Chain of Platelet-activating factor acetylhydrolase (Mus musculus) (Q60963 whole entry, looked up): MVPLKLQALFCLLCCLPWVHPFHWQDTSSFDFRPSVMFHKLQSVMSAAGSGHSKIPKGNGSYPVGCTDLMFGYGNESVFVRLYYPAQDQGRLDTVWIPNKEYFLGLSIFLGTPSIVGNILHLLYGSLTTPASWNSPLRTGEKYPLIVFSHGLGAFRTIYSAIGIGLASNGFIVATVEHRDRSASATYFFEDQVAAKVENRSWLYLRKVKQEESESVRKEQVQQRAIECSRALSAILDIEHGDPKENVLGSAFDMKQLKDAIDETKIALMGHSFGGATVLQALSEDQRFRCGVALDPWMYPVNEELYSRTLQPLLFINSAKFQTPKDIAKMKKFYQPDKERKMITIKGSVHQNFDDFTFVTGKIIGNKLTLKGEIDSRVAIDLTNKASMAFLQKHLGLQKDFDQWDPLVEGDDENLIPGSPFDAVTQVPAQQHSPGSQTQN
Chain of Monoglyceride lipase (Mus musculus) (O35678 whole entry, looked up): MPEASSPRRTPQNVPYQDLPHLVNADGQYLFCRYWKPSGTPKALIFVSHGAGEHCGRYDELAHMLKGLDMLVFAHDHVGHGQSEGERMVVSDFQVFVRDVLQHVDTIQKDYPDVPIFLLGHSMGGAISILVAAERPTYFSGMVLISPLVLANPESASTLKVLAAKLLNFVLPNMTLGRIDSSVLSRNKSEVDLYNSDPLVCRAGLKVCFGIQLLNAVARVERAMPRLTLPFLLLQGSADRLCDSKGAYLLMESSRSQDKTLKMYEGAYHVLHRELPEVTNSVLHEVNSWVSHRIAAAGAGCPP

Row | inhibition ([1]; at 10 µM) [%] | inhibition ([1]; inhibition, at 0.1 µM) [%] | inhibition ([1]; inhibition, at 1 µM) [%] | anti-target count ([2]; ABHD3, anti-targets inhibited) | anti-target count ([2]; ABHD4, anti-targets inhibited) | anti-target count ([2]; ABHD6, anti-targets inhibited) | anti-target count ([2]; FAAH, anti-targets inhibited) | anti-target count ([2]; LYPLA1, anti-targets inhibited) | anti-target count ([2]; LYPLA2, anti-targets inhibited) | anti-target count ([2]; MAGL, anti-targets inhibited) | anti-target count (pPAFAH) | inhibition ([3]; at 10 µM) | inhibition (ABHD3; at 10 µM) | inhibition (FAAH; at 10 µM) | inhibition (FAAH; inhibition, at 0.1 µM) [%] | inhibition (FAAH; inhibition, at 1 µM) [%] | inhibition (LYPLA2; at 10 µM) | inhibition (MW 30 kDa; at 1 µM) [%] | inhibition (LYPLA1; at 10 µM) | inhibition (ABHD6; at 10 µM) | Compound | further results
1 | 100 | 97 | 98 | 8 | 8 | 8 | 8 | 8 | 8 | 8 | 8 | 40% (inactive) | 100% | 88% (inactive) | 29 | 74 | 61% (inactive) | 36 | 84% (inactive) | 61% (inactive) | Cc1cc(N2CCN(C(=O)n3ncc(-c4ccc(Cl)c(Cl)c4)n3)CC2)c2ccccc2n1 | inhibition ([3]; inhibition, at 1 µM): 26%; inhibition (ABHD3; inhibition, at 0.1 µM): 69%; inhibition (ABHD3; inhibition, at 1 µM): 96%; inhibition (LYPLA2; inhibition, at 1 µM): 18%; inhibition (LYPLA1; inhibition, at 1 µM): 24%; inhibition (ABHD6; inhibition, at 0.1 µM): 13%; inhibition (ABHD6; inhibition, at 1 µM): 43%; inhibition (MW 32 kDa): 12%; inhibition (ABHD4; at 10 µM): 100%; inhibition (ABHD4; inhibition, at 0.1 µM): 69%; inhibition (ABHD4; inhibition, at 1 µM): 96%
2 | 100 | 100 | 100 | 9 | 9 | 9 | 9 | 9 | 9 | 9 | 9 | 53% (inactive) | 100% | 92% (inactive) | 38 | 91 | 96% (inactive) | 44 | 100% (inactive) | 74% (inactive) | Cc1cc(N2CCN(C(=O)n3ncc(-c4ccc(OC(F)(F)F)cc4)n3)CC2)c2ccccc2n1 | inhibition ([3]; inhibition, at 1 µM): 35%; inhibition (ABHD3; inhibition, at 0.1 µM): 75%; inhibition (ABHD3; inhibition, at 1 µM): 92%; inhibition (LYPLA2; inhibition, at 1 µM): 39%; inhibition (LYPLA1; inhibition, at 1 µM): 51%; inhibition (ABHD6; inhibition, at 0.1 µM): 22%; inhibition (ABHD6; inhibition, at 1 µM): 60%; inhibition (MW 32 kDa): 43%; inhibition (ABHD4; at 10 µM): 100%; inhibition (ABHD4; inhibition, at 0.1 µM): 75%; inhibition (ABHD4; inhibition, at 1 µM): 92%
3 | 99 | 97 | 99 | 9 | 9 | 9 | 9 | 9 | 9 | 9 | 9 | 84% (inactive) | 100% (inactive) | 87% (inactive) | 6 | 81 | 100% (inactive) | 67 | 100% (inactive) | 72% (inactive) | Cc1cc(N2CCN(C(=O)n3ncc(-c4ccc([N+](=O)[O-])cc4)n3)CC2)c2ccccc2n1 | inhibition ([3]; inhibition, at 0.1 µM): 28%; inhibition ([3]; inhibition, at 1 µM): 68%; inhibition (ABHD3; inhibition, at 0.1 µM): 11%; inhibition (ABHD3; inhibition, at 1 µM): 94%; inhibition (LYPLA2; inhibition, at 1 µM): 58%; inhibition (LYPLA1; inhibition, at 0.1 µM): 5%; inhibition (LYPLA1; inhibition, at 1 µM): 86%; inhibition (ABHD6; inhibition, at 0.1 µM): 17%; inhibition (ABHD6; inhibition, at 1 µM): 59%; inhibition (MW 32 kDa): 59%; inhibition (ABHD4; at 10 µM): 100% (inactive); inhibition (ABHD4; inhibition, at 0.1 µM): 11%; inhibition (ABHD4; inhibition, at 1 µM): 94%
4 | 98 | 98 | 98 | 6 | 6 | 6 | 6 | 6 | 6 | 6 | 6 | 68% (inactive) | 0% (inactive) | 100% | 83 | 96 | 54% (inactive) | 43 | 81% (inactive) | 79% (inactive) | O=C(N1CCOCC1)n1oc2cc(Cl)ccc2c1=O | inhibition ([3]; inhibition, at 0.1 µM): 36%; inhibition ([3]; inhibition, at 1 µM): 53%; inhibition (LYPLA2; inhibition, at 0.1 µM): 21%; inhibition (LYPLA2; inhibition, at 1 µM): 33%; inhibition (MW 30 kDa; at 0.1 µM): 31%; inhibition (LYPLA1; inhibition, at 0.1 µM): 17%; inhibition (LYPLA1; inhibition, at 1 µM): 33%; inhibition (ABHD6; inhibition, at 0.1 µM): 37%; inhibition (ABHD6; inhibition, at 1 µM): 58%; inhibition (ABHD4; at 10 µM): 0% (inactive)
5 | 100 | 82 | 85 | 2 | 2 | 2 | 2 | 2 | 2 | 2 | 2 | 23% (inactive) | 0% (inactive) | 100% | 96 | 100 | 0% (inactive) | 40 | 0% (inactive) | 46% (inactive) | O=C(Oc1noc2cc(Cl)ccc12)N1CCCCC1 | inhibition ([3]; inhibition, at 1 µM): 13%; inhibition (ABHD6; inhibition, at 0.1 µM): 20%; inhibition (ABHD6; inhibition, at 1 µM): 38%; inhibition (ABHD4; at 10 µM): 0% (inactive)
6 | 99 | 99 | 99 | 9 | 9 | 9 | 9 | 9 | 9 | 9 | 9 | 58% (inactive) | 100% (inactive) | 83% | 63 | 82 | 99% (inactive) | 51 | 96% (inactive) | 71% (inactive) | Cc1cc(N2CCN(C(=O)n3ncc(-c4ccccc4)n3)CC2)c2ccccc2n1 | inhibition ([3]; inhibition, at 1 µM): 36%; inhibition (ABHD3; inhibition, at 1 µM): 85%; inhibition (LYPLA2; inhibition, at 1 µM): 55%; inhibition (LYPLA1; inhibition, at 1 µM): 86%; inhibition (ABHD6; inhibition, at 1 µM): 54%; inhibition (MW 32 kDa): 43%; inhibition (ABHD4; at 10 µM): 100% (inactive); inhibition (ABHD4; inhibition, at 1 µM): 85%
7 | 100 | 96 | 97 | 3 | 3 | 3 | 3 | 3 | 3 | 3 | 3 | 26% (inactive) | 0% (inactive) | 100% | 85 | 94 | 0% (inactive) | 39 | 0% (inactive) | 66% (inactive) | O=C(Oc1noc2cc(Cl)ccc12)N1CCOCC1 | inhibition (MW 30 kDa; at 0.1 µM): 24%; inhibition (ABHD6; inhibition, at 0.1 µM): 27%; inhibition (ABHD6; inhibition, at 1 µM): 46%; inhibition (ABHD4; at 10 µM): 0% (inactive)
8 | 96 | 85 | 88 | 8 | 8 | 8 | 8 | 8 | 8 | 8 | 8 | 45% (inactive) | 100% (inactive) | 86% | 60 | 83 | 95% (inactive) | 50 | 92% (inactive) | 70% (inactive) | COc1ccc(-c2cnn(C(=O)N3CCN(c4cc(C)nc5ccccc45)CC3)n2)cc1 | inhibition ([3]; inhibition, at 1 µM): 35%; inhibition (ABHD3; inhibition, at 1 µM): 86%; inhibition (LYPLA2; inhibition, at 1 µM): 56%; inhibition (LYPLA1; inhibition, at 0.1 µM): 4%; inhibition (LYPLA1; inhibition, at 1 µM): 74%; inhibition (ABHD6; inhibition, at 0.1 µM): 12%; inhibition (ABHD6; inhibition, at 1 µM): 58%; inhibition (MW 32 kDa): 52%; inhibition (ABHD4; at 10 µM): 100% (inactive); inhibition (ABHD4; inhibition, at 1 µM): 86%
